Test results: US10239873B2, “7-azaindole or 4,7-diazaindole derivatives as IKKϵ epsilon and TBK1 inhibitor and pharmaceutical composition comprising same” (GREEN CROSS CORPORATION, priority 2015, dated 2019)

Key:
[1] = molecular target: T1, TBK1 (Homo sapiens, UniProt Q9UHD2); experiment: ADP-Glo Kinase Assay, inhibition activity on TBK1; type: biochemical
T1 construct: purchased Promega (Invitrogen is also named in the same bracket) V4158; PR8031B; V3991 (not assigned to the two kinases)
T1 sequence (Q9UHD2 1-729): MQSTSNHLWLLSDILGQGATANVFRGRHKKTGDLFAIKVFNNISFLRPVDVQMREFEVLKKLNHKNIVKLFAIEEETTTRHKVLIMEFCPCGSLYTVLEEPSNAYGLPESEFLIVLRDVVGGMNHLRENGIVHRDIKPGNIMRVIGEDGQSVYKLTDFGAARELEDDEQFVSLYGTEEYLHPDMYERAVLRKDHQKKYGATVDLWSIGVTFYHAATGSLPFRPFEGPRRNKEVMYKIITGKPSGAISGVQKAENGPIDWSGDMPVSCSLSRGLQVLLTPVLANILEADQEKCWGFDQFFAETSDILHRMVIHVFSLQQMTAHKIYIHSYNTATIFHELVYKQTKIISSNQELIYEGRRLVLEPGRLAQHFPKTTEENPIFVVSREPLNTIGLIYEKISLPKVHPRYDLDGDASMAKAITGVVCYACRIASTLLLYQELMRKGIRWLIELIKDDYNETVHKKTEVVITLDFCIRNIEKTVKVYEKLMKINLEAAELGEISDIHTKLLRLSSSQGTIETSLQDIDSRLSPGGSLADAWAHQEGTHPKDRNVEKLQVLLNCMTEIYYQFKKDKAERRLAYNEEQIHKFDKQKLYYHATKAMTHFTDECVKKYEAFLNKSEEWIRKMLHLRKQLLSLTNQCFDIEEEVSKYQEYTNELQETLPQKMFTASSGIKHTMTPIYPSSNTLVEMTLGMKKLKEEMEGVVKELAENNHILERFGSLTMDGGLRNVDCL
In short: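 In 40 mM Tris pH 7.5 with 20 mM MgCl2 and 0.1 mg/mL BSA, each enzyme (IKKε or TBK1 kinase system) was run according to the manufacturer's protocol. ADP formed was detected by ADP-Glo luminescence.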

[2] = molecular target: T2, IKKε (Homo sapiens, UniProt Q14164); experiment: ADP-Glo Kinase Assay, inhibition activity on IKKε; type: biochemical
T2 construct: purchased Promega and/or Invitrogen V4158; PR8031B; V3991 (not assigned to the two kinases)
T2 sequence (Q14164 1-716): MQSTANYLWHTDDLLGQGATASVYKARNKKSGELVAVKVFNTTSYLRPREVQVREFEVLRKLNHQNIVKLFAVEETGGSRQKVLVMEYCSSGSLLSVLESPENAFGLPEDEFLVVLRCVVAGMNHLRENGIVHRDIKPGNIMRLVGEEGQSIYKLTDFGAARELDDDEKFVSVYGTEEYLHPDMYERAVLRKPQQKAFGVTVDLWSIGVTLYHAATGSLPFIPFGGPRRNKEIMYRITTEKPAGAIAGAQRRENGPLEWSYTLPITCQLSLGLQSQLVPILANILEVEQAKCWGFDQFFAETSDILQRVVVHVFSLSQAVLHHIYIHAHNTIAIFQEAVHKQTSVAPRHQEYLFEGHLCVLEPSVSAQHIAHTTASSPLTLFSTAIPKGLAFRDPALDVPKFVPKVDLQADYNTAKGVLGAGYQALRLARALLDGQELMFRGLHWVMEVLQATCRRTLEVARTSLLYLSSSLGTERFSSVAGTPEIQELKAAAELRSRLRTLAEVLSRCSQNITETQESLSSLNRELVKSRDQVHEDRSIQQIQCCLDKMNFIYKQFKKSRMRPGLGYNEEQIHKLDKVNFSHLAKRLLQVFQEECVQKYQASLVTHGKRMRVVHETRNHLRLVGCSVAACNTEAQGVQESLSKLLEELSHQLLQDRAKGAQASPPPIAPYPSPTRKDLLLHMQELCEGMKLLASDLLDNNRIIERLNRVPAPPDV
Description: Inhibition activities on IKKϵ and TBK1 were evaluated using the compounds of Examples 1 to 250.
The inhibition activities on IKKϵ and TBK1 were measured by a luminometer, IKKϵ/TBK1 Kinase Enzyme System (Promega, Ca# V4158; Invitrogen, PR8031B, Promega, Ca# V3991) and ADP-Glo Kinase Assay using ADP-Glo™ Kinase Analysis Kit (Promega, Ca# V9101) and a kinase reaction buffer [40 mM Tris(pH 7.5), 20 mM MgCl2, 0.1 mg/mL BSA] in accordance with the manufacturer's protocol.

Row | SMILES | IC50 [1] [nM] | IC50 [2] [nM]
1 | CCC(CC)NC(=O)N1CC=C(c2c[nH]c3ncc(-c4ccc(CN5CCOCC5)s4)cc23)CC1 [Example 40, 4-(5-(5-(Morpholinomethyl)thiophen-2-yl)-1H-pyrrolo[2,3-b]pyridin-3-yl)-N-(pentan-3-yl)-3,6-dihydropyridine-1(2H)-carboxamide] | 74 | 170
2 | Cc1nnc(-c2cnc3[nH]cc(C4=CCN(C(=O)OC(C)(C)C)CC4)c3c2)s1 [Example 170, tert-Butyl 4-(5-(5-methyl-1,3,4-thiadiazol-2-yl)-1H-pyrrolo[2,3-b]pyridin-3-yl)-5,6-dihydropyridine-1(2H)-carboxylate] | 32 | 280
3 | CC(C)NC(=O)N1CC=C(c2c[nH]c3ncc(-c4cccc(CN5CCOCC5)c4)cc23)CC1 [Example 29, N-isopropyl-4-(5-(3-(morpholinomethyl)phenyl)-1H-pyrrolo[2,3-b]pyridin-3-yl)-5,6-dihydropyridine-1(2H)-carboxamide] | 16 | 29
4 | CC(C)NC(=O)N1CC=C(c2c[nH]c3ncc(-c4ccccc4)cc23)CC1 [Example 11, N-isopropyl-4-(5-phenyl-1H-pyrrolo[2,3-b]pyridin-3-yl)-5,6-dihydropyridine-1(2H)-carboxamide] | 24 | 8200
5 | CC(C)NC(=O)N1CC=C(c2c[nH]c3ncc(-c4ccc(CN5CCN(C)CC5)nc4)cc23)CC1 [Example 25, N-isopropyl-4-(5-(6-((4-methylpiperazin-1-yl)methyl)pyridin-3-yl)-1H-pyrrolo[2,3-b]pyridin-3-yl)-3,6-dihydropyridine-1(2H)-carboxamide] | 16 | 51
6 | CCC(CC)NC(=O)N1CCC(c2c[nH]c3ncc(-c4ccc(CN5CCN(C)CC5)s4)cc23)=CC1C (centres unmarked) [Example 91, 6-Methyl-4-(5-(5-((4-methylpiperazin-1-yl)methyl)thiophen-2-yl)-1H-pyrrolo[2,3-b]pyridin-3-yl)-N-(pentan-3-yl)-3,6-dihydropyridine-1(2H)-carboxamide] | 46 | 180
7 | CC(C)OC(=O)N1CC=C(c2c[nH]c3ncc(-c4ccc(S(C)(=O)=O)cc4)cc23)CC1 [Example 148, Isopropyl 4-(5-(4-(methylsulfonyl)phenyl)-1H-pyrrolo[2,3-b]pyridin-3-yl)-5,6-dihydropyridine-1(2H)-carboxylate] | 54 | 250
8 | CC(C)NC(=O)N1CC=C(c2c[nH]c3ncc(-c4ccc(CN5CCN(C6CC6)CC5)cc4)cc23)CC1 [Example 23, 4-(5-(4-((4-Cyclopropylpiperazin-1-yl)methyl)phenyl)-1H-pyrrolo[2,3-b]pyridin-3-yl)-N-isopropyl-3,6-dihydropyridine-1(2H)-carboxamide] | 5.7 | 6.6
9 | CCC(CC)NC(=O)N1CCC(c2c[nH]c3ncc(-c4ccc(CN5CCOCC5)s4)cc23)=CC1C (centres unmarked) [Example 92, 6-Methyl-4-(5-(5-(morpholinomethyl)thiophen-2-yl)-1H-pyrrolo[2,3-b]pyridin-3-yl)-N-(pentan-3-yl)-3,6-dihydropyridine-1(2H)-carboxamide] | 35 | 130
10 | CC(C)NC(=O)N1CC=C(c2c[nH]c3ncc(-c4ccc(CN5CCOCC5)o4)cc23)CC1 [Example 36, N-isopropyl-4-(5-(5-(morpholinomethyl)furan-2-yl)-1H-pyrrolo[2,3-b]pyridin-3-yl)-5,6-dihydropyridine-1(2H)-carboxamide] |  | 9.3
11 | CC(C)NC(=O)N1CC=C(c2c[nH]c3ncc(-c4ccc(NC5CCOCC5)cc4)cc23)CC1 [Example 37, N-isopropyl-4-(5-(4-((tetrahydro-2H-pyran-4-yl)amino)phenyl)-1H-pyrrolo[2,3-b]pyridin-3-yl)-3,6-dihydropyridine-1(2H)-carboxamide] | 10 | 13
12 | CCCCC(=O)N1CC=C(c2c[nH]c3ncc(-c4ccc(CN5CCOCC5)s4)cc23)CC1 [Example 9, 1-(4-(5-(5-(Morpholinomethyl)thiophen-2-yl)-1H-pyrrolo[2,3-b]pyridin-3-yl)-3,6-dihydropyridin-1(2H)-yl)pentan-1-one] | 330 | 510
13 | CC1CC(c2c[nH]c3ncc(-c4ccc(CN5CCN(C)CC5)s4)cc23)=CCN1C(=O)NC1CCCC1 (centres unmarked) [Example 103, N-cyclopentyl-6-methyl-4-(5-(5-((4-methylpiperazin-1-yl)methyl)thiophen-2-yl)-1H-pyrrolo[2,3-b]pyridin-3-yl)-5,6-dihydropyridine-1(2H)-carboxamide] | 58 | 150
14 | CC(C)NC(=O)N1CC=C(c2c[nH]c3ncc(-c4ccc(N)c5c4CNC5=O)cc23)CC1 [Example 39, 4-(5-(7-Amino-1-oxoisoindolidin-4-yl)-1H-pyrrolo[2,3-b]pyridin-3-yl)-N-isopropyl-3,6-dihydropyridine-1(2H)-carboxamide] | 35 | 35
15 | COc1ccc(-c2cnc3[nH]cc(C4CCN(C(=O)NC(C)C)CC4)c3c2)cc1OC [Example 235, 4-(5-(3,4-dimethoxyphenyl)-1H-pyrrolo[2,3-b]pyridin-3-yl)-N-isopropylpiperidine-1-carboxamide] | > 10000 | > 10000
16 | O=C(NC1CCCC1)N1CC=C(c2c[nH]c3ncc(-c4ccc(CN5CCOCC5)s4)cc23)CC1 [Example 72, N-cyclopentyl-4-(5-(5-(morpholinomethyl)thiophen-2-yl)-1H-pyrrolo[2,3-b]pyridin-3-yl)-5,6-dihydropyridine-1(2H)-carboxamide] | 28 | 38
17 | CN1CCN(Cc2ccc(-c3cnc4[nH]cc(C5=CCN(C(=O)NC6COC6)CC5)c4c3)cc2)CC1 [Example 78, 4-(5-(4-((4-Methylpiperazin-1-yl)methyl)phenyl)-1H-pyrrolo[2,3-b]pyridin-3-yl)-N-(oxetan-3-yl)-5,6-dihydropyridine-1(2H)-carboxamide] | 15 | 55
18 | CC(C)NC(=O)N1CC=C(c2c[nH]c3ncc(-c4ccc(CN5CCN(C)CC5)o4)cc23)CC1 [Example 35, N-isopropyl-4-(5-(5-((4-methylpiperazin-1-yl)methyl)furan-2-yl)-1H-pyrrolo[2,3-b]pyridin-3-yl)-5,6-dihydropyridine-1(2H)-carboxamide] | 18 | 110
19 | CC(C)OC(=O)N1CC=C(c2c[nH]c3ncccc23)CC1 [Example 139, Isopropyl 4-(1H-pyrrolo[2,3-b]pyridin-3-yl)-5,6-dihydropyridine-1(2H)-carboxylate] | 320 | 
20 | CC(C)OC(=O)N1CC=C(c2c[nH]c3ncc(-c4cccc(S(C)(=O)=O)c4)cc23)CC1 [Example 149, Isopropyl 4-(5-(3-(methylsulfonyl)phenyl)-1H-pyrrolo[2,3-b]pyridin-3-yl)-5,6-dihydropyridine-1(2H)-carboxylate] | 30 | 
21 | COc1ccc(-c2cnc3[nH]cc(C4=CCN(C(=O)NN5CCCC5)CC4)c3c2)cc1OC [Example 85, 4-(5-(3,4-Dimethoxyphenyl)-1H-pyrrolo[2,3-b]pyridin-3-yl)-N-(pyrrolidin-1-yl)-5,6-dihydropyridine-1(2H)-carboxamide 2,2,2-trifluoroacetate] | 110 | 
